Assays:
Assay type in all cases: in vivo
[1] = system: large crabgrass (Digitaria sanguinalis, DIGSA); assay: Pre-emerge test, greenhouse herbicide activity screening; conditions: phytotoxicity rating 0-100, 14 days after application
Method in brief: (§1)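 Visual ratings on a 0-100 scale (0 no damage, 100 all plants dead) were taken at 14 days after treatment. Rates of 15-1000 g ai/ha in acetone, 187 l/ha, were sprayed onto soil one day after planting (pre-emerge) or onto 2-3 leaf plants with 0.25% v/v surfactant (post-emerge).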

[2] = system: barnyardgrass (Echinochloa crus-galli, ECHCG); assay: as above; conditions: phytotoxicity rating 0-100, 14 days after application
Method in brief: as §1

[3] = system: green foxtail (Setaria viridis, SETVI); assay: as above; conditions: phytotoxicity rating 0-100, 14 days after application
Method in brief: as §1

[4] = system: ivyleaf morningglory (Ipomoea hederacea, IPOHE); assay: as above; conditions: phytotoxicity rating 0-100, 14 days after application
Method in brief: as §1

[5] = system: velvetleaf (Abutilon theophrasti, ABUTH); assay: as above; conditions: phytotoxicity rating 0-100, 14 days after application
Method in brief: as §1

[6] = system: lambsquarters (Chenopodium album, CHEAL); assay: as above; conditions: phytotoxicity rating 0-100, 14 days after application
Method in brief: as §1

[7] = system: johnsongrass (Sorghum halepense, SORHA); assay: as above; conditions: phytotoxicity rating 0-100, 14 days after application
Method in brief: as §1

[8] = system: sicklepod (Cassia obtusifolia, CASOB); assay: as above; conditions: phytotoxicity rating 0-100, 14 days after application
Method in brief: as §1

[9] = system: upland rice (Oryza sp., var. Tebonnet, RICE); assay: Pre-emerge test, crop safety; conditions: crop damage rating 0-100, 14 days after application
Method in brief: (§2)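 Fourteen days after spraying, crop and weed injury was graded visually from 0, no effect, to 100, every plant dead. Test substances were dissolved in acetone and applied at 15–1000 g ai/ha with a flat-fan nozzle. Application was either pre-emergence, one day after sowing, or post-emergence at the 2–3 leaf stage.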

[10] = system: field corn (Zea mays L., var. Dekalb 535, CORN); assay: Pre-emerge test, crop safety; conditions: crop damage rating 0-100, 14 days after application
Method in brief: as §2

[11] = system: redroot pigweed (Amaranthus retroflexus, AMARE); assay: Pre-emerge test, greenhouse herbicide activity screening; conditions: phytotoxicity rating 0-100, 14 days after application
Method in brief: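 Rating: 0–100 visual injury, 14 DAA. Application: acetone, 187 l/ha, 15–1000 g ai/ha, flat-fan track sprayer with nozzle 40–45 cm above soil or canopy. Post-emerge runs used 0.25% v/v surfactant on 2–3 leaf plants.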

[12] = system: upland rice (Oryza sp., var. Tebonnet, RICE); assay: Post-emerge test, crop safety; conditions: post-emerge, 14 days after application, rating scale 0-100
Method in brief: as §1

[13] = system: field corn (Zea mays L., var. Dekalb 535, CORN); assay: Post-emerge test, crop safety; conditions: post-emerge, 14 days after application, rating scale 0-100
Method in brief: as §1

[14] = system: large crabgrass (Digitaria sanguinalis, DIGSA); assay: Post-emerge test, greenhouse herbicide activity screening; conditions: post-emerge, 14 days after application, rating scale 0-100
Method in brief: (§3)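 Compounds in acetone were track-sprayed at 15–1000 g ai/ha: pre-emergence onto soil sown the previous day, then top-watered to incorporate and later bottom-watered; post-emergence onto 2–3 leaf plants with 0.25% v/v surfactant, bottom-watered only. Ratings on a 0–100 phytotoxicity scale were taken at day 14.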

[15] = system: barnyardgrass (Echinochloa crus-galli, ECHCG); assay: as above; conditions: post-emerge, 14 days after application, rating scale 0-100
Method in brief: as §3

[16] = system: redroot pigweed (Amaranthus retroflexus, AMARE); assay: as above; conditions: post-emerge, 14 days after application
Method in brief: as §3

[17] = system: green foxtail (Setaria viridis, SETVI); assay: as above; conditions: post-emerge, 14 days after application, rating scale 0-100
Method in brief: as §3

[18] = system: ivyleaf morningglory (Ipomoea hederacea, IPOHE); assay: as above; conditions: post-emerge, 14 days after application, rating scale 0-100
Method in brief: as §3

[19] = system: velvetleaf (Abutilon theophrasti, ABUTH); assay: as above; conditions: post-emerge, 14 days after application, rating scale 0-100
Method in brief: as §3

[20] = system: lambsquarters (Chenopodium album, CHEAL); assay: as above; conditions: post-emerge, 14 days after application, rating scale 0-100
Method in brief: as §3

[21] = system: johnsongrass (Sorghum halepense, SORHA); assay: as above; conditions: post-emerge, 14 days after application, rating scale 0-100
Method in brief: as §3

[22] = system: sicklepod (Cassia obtusifolia, CASOB); assay: as above; conditions: post-emerge, 14 days after application, rating scale 0-100
Method in brief: as §3

[23] = 63 g ai/ha, rating scale 0-100 (0 no damage, 100 complete death)
[24] = 250 g ai/ha, rating scale 0-100

`COc1c(Cl)cc(F)c(-n2c(=O)cc(C(F)(F)F)n(C)c2=O)c1NC(=O)OCc1ccccc1[N+](=O)[O-]` [4-34] was tested. Which “Pre-emerge Herbicidal Activity DIGSA” value ([1]; 63 g ai/ha) did it give?
Its value is 90.

And the “Pre-emerge Herbicidal Activity DIGSA” value ([1]; 250 g ai/ha)?
The value was 95.

What about the “Pre-emerge Herbicidal Activity ECHCG” value ([2]; 63 g ai/ha) of the same compound?
Its value is 50.

What about the “Pre-emerge Herbicidal Activity ECHCG” value ([2]; 250 g ai/ha) of the same compound?
Its value is 90.

What about the “Pre-emerge Herbicidal Activity SETVI” value ([3]; 63 g ai/ha) of the same compound?
Its value is 80.

And the “Pre-emerge Herbicidal Activity SETVI” value ([3]; 250 g ai/ha)?
Its value is 100.

And the “Pre-emerge Herbicidal Activity IPOHE” value ([4]; 63 g ai/ha)?
The value was 30.

What about the “Pre-emerge Herbicidal Activity IPOHE” value ([4]; 250 g ai/ha) of the same compound?
Its value is 80.

And the “Pre-emerge Herbicidal Activity ABUTH” value ([5]; 63 g ai/ha)?
Its value is 100.

What about the “Pre-emerge Herbicidal Activity ABUTH” value ([5]; 250 g ai/ha) of the same compound?
Its value is 100.

What about the “Pre-emerge Herbicidal Activity CHEAL” value ([6]; 63 g ai/ha) of the same compound?
Its value is 100.

And the “Pre-emerge Herbicidal Activity CHEAL” value ([6]; 250 g ai/ha)?
The value was 100.

What about the “Pre-emerge Herbicidal Activity SORHA” value ([7]; 63 g ai/ha) of the same compound?
The value was 40.

And the “Pre-emerge Herbicidal Activity SORHA” value ([7]; 250 g ai/ha)?
Its value is 80.

And the “Pre-emerge Herbicidal Activity CASOB” value ([8]; 63 g ai/ha)?
Its value is 40.

What about the “Pre-emerge Herbicidal Activity CASOB” value ([8]; 250 g ai/ha) of the same compound?
Its value is 95.

What about the “Pre-emerge Herbicidal Activity RICE” value ([9]; 63 g ai/ha) of the same compound?
Its value is 50.

And the “Pre-emerge Herbicidal Activity RICE” value ([9]; 250 g ai/ha)?
The value was 95.

And the “Pre-emerge Herbicidal Activity CORN” value ([10]; 63 g ai/ha)?
The value was 10.

What about the “Pre-emerge Herbicidal Activity CORN” value ([10]; 250 g ai/ha) of the same compound?
Its value is 90.

And the “Pre-emerge Herbicidal Activity AMARE” value ([11]; 63 g ai/ha)?
The value was 100.

And the “Pre-emerge Herbicidal Activity AMARE” value ([11]; 250 g ai/ha)?
Its value is 100.

And the “phytotoxicity rating RICE (crop damage)” value ([12]; 63 g ai/ha)?
The value was 40.

And the “phytotoxicity rating RICE (crop damage)” value ([12]; 250 g ai/ha)?
The value was 80.

And the “phytotoxicity rating CORN (crop damage)” value ([13]; 63 g ai/ha)?
The value was 25.

And the “phytotoxicity rating CORN (crop damage)” value ([13]; 250 g ai/ha)?
The value was 50.

And the “phytotoxicity rating DIGSA” value ([14]; 63 g ai/ha)?
Its value is 35.

What about the “phytotoxicity rating DIGSA” value ([14]; 250 g ai/ha) of the same compound?
The value was 60.

And the “phytotoxicity rating ECHCG” value ([15]; 63 g ai/ha)?
The value was 20.

And the “phytotoxicity rating ECHCG” value ([15]; 250 g ai/ha)?
The value was 50.

And the “phytotoxicity rating AMARE” value [16, 23]?
The value was 100.

What about the “phytotoxicity rating AMARE” value [16, 24] of the same compound?
The value was 100.

What about the “phytotoxicity rating SETVI” value ([17]; 63 g ai/ha) of the same compound?
Its value is 50.

What about the “phytotoxicity rating SETVI” value ([17]; 250 g ai/ha) of the same compound?
The value was 75.

What about the “phytotoxicity rating IPOHE” value ([18]; 63 g ai/ha) of the same compound?
The value was 100.

What about the “phytotoxicity rating IPOHE” value ([18]; 250 g ai/ha) of the same compound?
The value was 90.

What about the “phytotoxicity rating ABUTH” value ([19]; 63 g ai/ha) of the same compound?
Its value is 100.

And the “phytotoxicity rating ABUTH” value ([19]; 250 g ai/ha)?
The value was 100.

What about the “phytotoxicity rating CHEAL” value ([20]; 63 g ai/ha) of the same compound?
Its value is 100.

And the “phytotoxicity rating CHEAL” value ([20]; 250 g ai/ha)?
Its value is 100.

And the “phytotoxicity rating SORHA” value ([21]; 63 g ai/ha)?
Its value is 30.

What about the “phytotoxicity rating SORHA” value ([21]; 250 g ai/ha) of the same compound?
Its value is 30.

What about the “phytotoxicity rating CASOB” value ([22]; 63 g ai/ha) of the same compound?
Its value is 90.

And the “phytotoxicity rating CASOB” value ([22]; 250 g ai/ha)?
The value was 100.

Which results are given for `Cc1ccc(OC(=O)Nc2c(C)c(Cl)cc(F)c2-n2c(=O)cc(C(F)(F)F)n(C)c2=O)cc1C` [4-53]?
Pre-emerge Herbicidal Activity DIGSA ([1]; 63 g ai/ha): 40; Pre-emerge Herbicidal Activity DIGSA ([1]; 250 g ai/ha): 100; Pre-emerge Herbicidal Activity ECHCG ([2]; 63 g ai/ha): 10; Pre-emerge Herbicidal Activity ECHCG ([2]; 250 g ai/ha): 85; Pre-emerge Herbicidal Activity SETVI ([3]; 63 g ai/ha): 80; Pre-emerge Herbicidal Activity SETVI ([3]; 250 g ai/ha): 100; Pre-emerge Herbicidal Activity IPOHE ([4]; 63 g ai/ha): 30; Pre-emerge Herbicidal Activity IPOHE ([4]; 250 g ai/ha): 80; Pre-emerge Herbicidal Activity ABUTH ([5]; 63 g ai/ha): 100; Pre-emerge Herbicidal Activity ABUTH ([5]; 250 g ai/ha): 100; Pre-emerge Herbicidal Activity CHEAL ([6]; 63 g ai/ha): 100; Pre-emerge Herbicidal Activity CHEAL ([6]; 250 g ai/ha): 100; Pre-emerge Herbicidal Activity SORHA ([7]; 63 g ai/ha): 30; Pre-emerge Herbicidal Activity SORHA ([7]; 250 g ai/ha): 85; Pre-emerge Herbicidal Activity CASOB ([8]; 63 g ai/ha): 20; Pre-emerge Herbicidal Activity CASOB ([8]; 250 g ai/ha): 60; Pre-emerge Herbicidal Activity RICE ([9]; 63 g ai/ha): 10; Pre-emerge Herbicidal Activity RICE ([9]; 250 g ai/ha): 50; Pre-emerge Herbicidal Activity CORN ([10]; 63 g ai/ha): 0; Pre-emerge Herbicidal Activity CORN ([10]; 250 g ai/ha): 25; Pre-emerge Herbicidal Activity AMARE ([11]; 63 g ai/ha): 100; Pre-emerge Herbicidal Activity AMARE ([11]; 250 g ai/ha): 100; phytotoxicity rating RICE (crop damage) ([12]; 63 g ai/ha): 30; phytotoxicity rating RICE (crop damage) ([12]; 250 g ai/ha): 65; phytotoxicity rating CORN (crop damage) ([13]; 63 g ai/ha): 5; phytotoxicity rating CORN (crop damage) ([13]; 250 g ai/ha): 70; phytotoxicity rating DIGSA ([14]; 63 g ai/ha): 0; phytotoxicity rating DIGSA ([14]; 250 g ai/ha): 40; phytotoxicity rating ECHCG ([15]; 63 g ai/ha): 0; phytotoxicity rating ECHCG ([15]; 250 g ai/ha): 60; phytotoxicity rating AMARE [16, 23]: 70; phytotoxicity rating AMARE [16, 24]: 100; phytotoxicity rating SETVI ([17]; 63 g ai/ha): 10; phytotoxicity rating SETVI ([17]; 250 g ai/ha): 70; phytotoxicity rating IPOHE ([18]; 63 g ai/ha): 100; phytotoxicity rating IPOHE ([18]; 250 g ai/ha): 100; phytotoxicity rating ABUTH ([19]; 63 g ai/ha): 100; phytotoxicity rating ABUTH ([19]; 250 g ai/ha): 100; phytotoxicity rating CHEAL ([20]; 63 g ai/ha): 60; phytotoxicity rating CHEAL ([20]; 250 g ai/ha): 90; phytotoxicity rating SORHA ([21]; 63 g ai/ha): 0; phytotoxicity rating SORHA ([21]; 250 g ai/ha): 40; phytotoxicity rating CASOB ([22]; 63 g ai/ha): 30; phytotoxicity rating CASOB ([22]; 250 g ai/ha): 90

Reference: patent US6355799B1, “Substituted benzene compounds, process for their preparation, and herbicidal and defoliant compositions containing them” (ISK Americas Incorporated, priority 1997, dated 2002)
